According to PubChem BioAssay AID1919010 (Molecular Pharmacology Branch, DTP, NCI, 2023):

Test system: Hs578T complex spheroid growth, percent test/control
Test: Anticancer human tumor Hs578T cell line growth inhibition [AhR];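 further: luminescent viability signal as a proxy for spheroid growth; spheroids exposed to agents for one week after three days of growth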
Settings: for IC50: curve of first compound; for viability, T/C: stronger effect = lower value
How it was run: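 Complex tumor spheroids co-cultured with HUVEC and human MSC stroma; AhR antagonists tested in combination with standard-of-care and investigational agents. Top concentration at or near clinical Cmax (else 10 microM), half-log dilutions; growth expressed as percent test/control.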

[1] = second compound 0.1 µM, first compound 0.0316 µM
[2] = second compound 0.1 µM, first compound 0.1 µM
[3] = second compound 0.1 µM, first compound 0.316 µM
[4] = second compound 0.1 µM, first compound 1 µM
[5] = second compound 0.1 µM, first compound 3.16 µM
[6] = second compound 0.1 µM, first compound 10 µM
[7] = second compound 0.316 µM, first compound 0.0316 µM
[8] = second compound 0.316 µM, first compound 0.1 µM
[9] = second compound 0.316 µM, first compound 0.316 µM
[10] = second compound 0.316 µM, first compound 1 µM
[11] = second compound 0.316 µM, first compound 3.16 µM
[12] = second compound 0.316 µM, first compound 10 µM
[13] = second compound 1 µM, first compound 0.0316 µM
[14] = second compound 1 µM, first compound 0.1 µM
[15] = second compound 1 µM, first compound 0.316 µM
[16] = second compound 1 µM, first compound 1 µM
[17] = second compound 1 µM, first compound 3.16 µM
[18] = second compound 1 µM, first compound 10 µM
[19] = second compound 3.16 µM, first compound 0.0316 µM
[20] = second compound 3.16 µM, first compound 0.1 µM
[21] = second compound 3.16 µM, first compound 0.316 µM
[22] = second compound 3.16 µM, first compound 1 µM
[23] = second compound 3.16 µM, first compound 3.16 µM
[24] = second compound 3.16 µM, first compound 10 µM
[25] = second compound 10 µM, first compound 0.0316 µM
[26] = second compound 10 µM, first compound 0.1 µM
[27] = second compound 10 µM, first compound 0.316 µM
[28] = second compound 10 µM, first compound 1 µM
[29] = second compound 10 µM, first compound 3.16 µM
[30] = second compound 10 µM, first compound 10 µM

SMILES | IC50 (second compound 0.1 µM) | IC50 (second compound 0.316 µM) | IC50 (second compound 1 µM) | IC50 (second compound 3.16 µM) | IC50 (second compound 10 µM) | viability, T/C [1] | viability, T/C [2] | viability, T/C [3] | viability, T/C [4] | viability, T/C [5] | viability, T/C [6] | viability, T/C [7] | viability, T/C [8] | viability, T/C [9] | viability, T/C [13] | viability, T/C [14] | viability, T/C [19] | viability, T/C [20] | viability, T/C [25] | viability, T/C [26] | also measured
COc1cc(Nc2ncc3c(n2)-c2ccc(Cl)cc2C(c2c(F)cccc2OC)=NC3)ccc1C(=O)O + Cc1ccccc1N=Nc1ccc(NC(=O)c2ccnn2C)c(C)c1 | 6.12 µM | 6.76 µM | 7.91 µM | > 10 µM | 5.67 µM | 88.2% | 91.4% | 78% | 77.5% | 71.9% | 35.4% | 85% | 81.7% | 91.8% | 86% | 75% | 71.5% | 83.1% | 68.4% | 64.2% | viability, T/C [10]: 79.4%; viability, T/C [11]: 67.9%; viability, T/C [12]: 40.9%; viability, T/C [15]: 92.9%; viability, T/C [16]: 82.3%; viability, T/C [17]: 73.2%; viability, T/C [18]: 44%; viability, T/C [21]: 85.1%; viability, T/C [22]: 73.8%; viability, T/C [23]: 66.7%; viability, T/C [24]: 50.1%; viability, T/C [27]: 68.3%; viability, T/C [28]: 63.9%; viability, T/C [29]: 62.5%; viability, T/C [30]: 38.2%
Cn1ncnc1C1c2n[nH]c(=O)c3cc(F)cc(c23)NC1c1ccc(F)cc1 (stereo not given) + Cc1ccccc1N=Nc1ccc(NC(=O)c2ccnn2C)c(C)c1 | > 0.1 µM | > 0.1 µM | > 0.1 µM | > 0.1 µM | > 0.1 µM | 100% | 99.5% |  |  |  |  | 106% | 107% |  | 107% | 99.7% | 99.9% | 99% | 69% | 72.2% | viability, T/C (second compound 0.1 µM, first compound 0.000316 µM): 109%; viability, T/C (second compound 0.1 µM, first compound 0.001 µM): 104%; viability, T/C (second compound 0.1 µM, first compound 0.00316 µM): 105%; viability, T/C (second compound 0.1 µM, first compound 0.01 µM): 105%; viability, T/C (second compound 0.316 µM, first compound 0.000316 µM): 121%; viability, T/C (second compound 0.316 µM, first compound 0.001 µM): 117%; viability, T/C (second compound 0.316 µM, first compound 0.00316 µM): 109%; viability, T/C (second compound 0.316 µM, first compound 0.01 µM): 105%; viability, T/C (second compound 1 µM, first compound 0.000316 µM): 108%; viability, T/C (second compound 1 µM, first compound 0.001 µM): 105%; viability, T/C (second compound 1 µM, first compound 0.00316 µM): 107%; viability, T/C (second compound 1 µM, first compound 0.01 µM): 104%; viability, T/C (second compound 3.16 µM, first compound 0.000316 µM): 94.4%; viability, T/C (second compound 3.16 µM, first compound 0.001 µM): 103%; viability, T/C (second compound 3.16 µM, first compound 0.00316 µM): 101%; viability, T/C (second compound 3.16 µM, first compound 0.01 µM): 93.9%; viability, T/C (second compound 10 µM, first compound 0.000316 µM): 73.7%; viability, T/C (second compound 10 µM, first compound 0.001 µM): 71.2%; viability, T/C (second compound 10 µM, first compound 0.00316 µM): 76.7%; viability, T/C (second compound 10 µM, first compound 0.01 µM): 81.7%
NS(=O)(=O)OCC1CC(n2ccc3c(NC4CCc5ccccc54)ncnc32)CC1O (stereo not given) + Cc1ccccc1N=Nc1ccc(NC(=O)c2ccnn2C)c(C)c1 | 0.965 µM | 1.47 µM | 1.52 µM | 0.862 µM | 0.105 µM | 104% | 82.5% | 78.1% | 45.4% | 34.6% | 30.2% | 108% | 78.2% | 71.2% | 97.8% | 74.8% | 94.9% | 71% | 59.4% | 47.9% | viability, T/C [10]: 59%; viability, T/C [11]: 36.5%; viability, T/C [12]: 33.7%; viability, T/C [15]: 83.1%; viability, T/C [16]: 57.7%; viability, T/C [17]: 35.3%; viability, T/C [18]: 34.7%; viability, T/C [21]: 67.9%; viability, T/C [22]: 45.5%; viability, T/C [23]: 36.5%; viability, T/C [24]: 28%; viability, T/C [27]: 43.8%; viability, T/C [28]: 37.5%; viability, T/C [29]: 30.2%; viability, T/C [30]: 25.8%
O=C(C=Cc1cccc(S(=O)(=O)Nc2ccccc2)c1)NO + Cc1ccccc1N=Nc1ccc(NC(=O)c2ccnn2C)c(C)c1 | 1.85 µM | 1.78 µM | 1.86 µM | 1.77 µM | 1.5 µM | 99% | 107% | 94% | 77.5% | 26.2% | 0.74% | 105% | 108% | 94% | 109% | 104% | 93.5% | 87.2% | 64.2% | 67.2% | viability, T/C [10]: 74%; viability, T/C [11]: 26.9%; viability, T/C [12]: 0.66%; viability, T/C [15]: 96.5%; viability, T/C [16]: 77.6%; viability, T/C [17]: 26.9%; viability, T/C [18]: 0.82%; viability, T/C [21]: 98.5%; viability, T/C [22]: 71.9%; viability, T/C [23]: 26.3%; viability, T/C [24]: 1.13%; viability, T/C [27]: 64%; viability, T/C [28]: 63.2%; viability, T/C [29]: 25.9%; viability, T/C [30]: 1.32%
